Data taken from PMC11245519, “Ubiquitous purine sensor modulates diverse signal transduction pathways in bacteria” (Nature Communications, 2024).
Where two headings read alike, the source gives them in different places.

Assays:
[1] = test system: members of the family dCache_1PU (11 soluble LBDs); test: Thermal shift ligand screening of all dCache_1PU proteins (Biolog arrays PM3B and PM5); assay type: binding
R1 (WP_219614703-LBD) [2] = target: T1, R1 (WP_219614703-LBD) (Aeromonas salmonicida, UniProt T0PLV6); test: Microcalorimetric titration (ITC) of the R1 LBD with ligands; assay type: binding; conditions: for Kd: read-out: Dissociation constant, R1
R5 (WP_131005693-LBD) [3] = test: Microcalorimetric titration (ITC) of the R5 LBD with ligands; assay type: binding, Clostridioides difficile; conditions: 25 °C, pH 7.0
R8 (WP_227113344-LBD) = R8 (WP_227113344-LBD) (Eggerthella sinensis, UniProt A0ABX9HL97); test: Microcalorimetric titration (ITC) of the R8 LBD with ligands; assay type: binding
R11 (WP_162024566-LBD) [4] = test: Microcalorimetric titration (ITC) of the R11 LBD with ligands; assay type: binding, Lentimonas sp. CC4; conditions: 25 °C; for Binding in microcalorimetric titration, R11: pH 7.0
R14 (WP_021170906-LBD) [5] = target: T2, R14 (WP_021170906-LBD) (Sporomusa ovata, UniProt A0A0U1L1T7); test: Microcalorimetric titration (ITC) of the R14 LBD with ligands; assay type: binding; conditions: for Kd: read-out: Dissociation constant, R14
T2 sequence (A0A0U1L1T7 entry or part of it): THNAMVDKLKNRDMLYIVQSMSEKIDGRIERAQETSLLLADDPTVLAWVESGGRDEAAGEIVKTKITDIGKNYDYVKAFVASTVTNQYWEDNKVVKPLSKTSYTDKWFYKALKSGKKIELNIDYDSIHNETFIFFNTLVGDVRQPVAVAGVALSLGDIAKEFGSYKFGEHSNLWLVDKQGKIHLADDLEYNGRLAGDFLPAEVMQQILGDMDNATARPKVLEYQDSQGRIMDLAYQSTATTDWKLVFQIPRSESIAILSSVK

R15 (WP_207952809-LBD) [6] = target: T3, R15 (WP_207952809-LBD) (Paenibacillus agricola, UniProt A0ABX0IZG8); test: Microcalorimetric titration (ITC) of the R15 LBD with ligands; assay type: binding, Paenibacillus sp. S3N08; conditions: for Kd / Binding in microcalorimetric titration, R15: 25 °C; for Kd: pH 7.0, read-out: Dissociation constant, R15; for N value, R15: One binding site model, * = hyperbolic curve; for Binding in microcalorimetric titration, R15: pH 7.0
T3 sequence (A0ABX0IZG8 entry or part of it): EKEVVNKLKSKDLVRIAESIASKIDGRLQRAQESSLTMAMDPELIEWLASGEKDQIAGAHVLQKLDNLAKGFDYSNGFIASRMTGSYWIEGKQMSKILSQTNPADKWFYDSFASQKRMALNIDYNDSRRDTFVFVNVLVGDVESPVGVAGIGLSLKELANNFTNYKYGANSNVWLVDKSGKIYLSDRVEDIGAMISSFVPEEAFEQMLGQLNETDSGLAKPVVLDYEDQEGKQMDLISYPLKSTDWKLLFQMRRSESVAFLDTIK

R4 (WP_199478134-LBD) [7] = test: Thermal shift assay of the R4 LBD; assay type: binding, Marinomonas spartinae; conditions: change in Tm, threshold 2 °C
R6 (WP_185834821-LBD) [8] = target: T4, R6 (WP_185834821-LBD) (Vibrio cholerae, UniProt Q9KPY8); test: Thermal shift assay of the R6 LBD; assay type: binding; conditions: change in Tm, threshold 2 °C
R10 (WP_110129388-LBD) = assay type: binding, Coraliomargarita sinensis; conditions: change in Tm, threshold 2 °C; for Binding in thermal shift assay, R10: 2 mM ligand (Supplementary Fig. 7); for Binding in thermal shift assay, R10 (Supplementary Table 3): cells left empty in Table 3
R13 (WP_167859577-LBD) = assay type: binding, Paenibacillus cymbidii; conditions: change in Tm, threshold 2 °C; 2 mM ligand (Supplementary Fig. 7)
[9] = test system: dCache_1PU domains (11 proteins analyzed); test: Summary of binding data (thermal shift assays and ITC) for the 11 dCache_1PU proteins; conditions: of the 11 proteins analyzed
R6 (WP_185834821-LBD) [10] = target: T4, R6 (WP_185834821-LBD); test: biochemical; assay type: binding
R5 (WP_131005693-LBD) [11] = test: Thermal shift assay of the R5 LBD; assay type: binding, Clostridioides difficile; conditions: change in Tm, threshold 2 °C
R11 (WP_162024566-LBD) [12] = test: Thermal shift assay of the R11 LBD; assay type: binding, Lentimonas sp. CC4; conditions: change in Tm, threshold 2 °C
[13] = test system: R6 diguanylate cyclase (VC2224) expressed in P. putida KT2440 pCdrA::gfpC; assay type: cell-based
R15 (WP_207952809-LBD) [14] = target: T3, R15 (WP_207952809-LBD); test: Thermal shift assay of the R15 LBD; assay type: binding, Paenibacillus sp. S3N08; conditions: change in Tm, threshold 2 °C
R1 (WP_219614703-LBD) [15] = target: T1, R1 (WP_219614703-LBD); assay type: binding; conditions: change in Tm, threshold 2 °C
R14 (WP_021170906-LBD) [16] = target: T2, R14 (WP_021170906-LBD); test: Thermal shift assay of the R14 LBD; assay type: binding; conditions: change in Tm, threshold 2 °C
R4 (WP_199478134-LBD) [17] = assay type: binding, Marinomonas spartinae; conditions: ITC, 25 °C, pH 8.0; read-out: Dissociation constant, R4
[18] = ITC, One binding site model, * = hyperbolic curve

Row | SMILES | Shift in the thermal shift assays [1] | Binding in microcalorimetric titration, R11 (R11 (WP_162024566-LBD) [4]) | Kd (R14 (WP_021170906-LBD) [5]; ITC, 25 °C) [µM] | N value, R14 (R14 (WP_021170906-LBD) [5]; [18]) | Binding in thermal shift assay, R4 (R4 (WP_199478134-LBD) [7]) | Binding in thermal shift assay, R13 (R13 (WP_167859577-LBD)) | Kd (R1 (WP_219614703-LBD) [2]; ITC, 25 °C, pH 7.0) [µM] | Binding in thermal shift assay, R5 (R5 (WP_131005693-LBD) [11]) | Binding in microcalorimetric titration, R15 (R15 (WP_207952809-LBD) [6]) | Kd (R4 (WP_199478134-LBD) [17]) [µM] | further results
1 | C[N+](C)(C)CCO [choline] | did not produce any significant shift |  |  |  |  |  |  |  |  |  | 
2 | O=c1[nH]c(=O)c2nc[nH]c2[nH]1 [Xanthine] |  | Nb^a | 5.1 ± 0.9 | 0.13 | Nts^b (no binding observed in thermal shift assays, i.e., compounds caused changes in the midpoint of protein unfolding (Tm) of less than 2 °C) | Nts^b (no binding observed in thermal shift assays, i.e., compounds caused changes in the midpoint of protein unfolding (Tm) of less than 2 °C) |  |  |  |  | Binding in microcalorimetric titration, R1 (R1 (WP_219614703-LBD) [2]; ITC, 25 °C, pH 7.0): Nb^a; Binding in microcalorimetric titration, R5 (R5 (WP_131005693-LBD) [3]): Nb^a; N value, R8 (R8 (WP_227113344-LBD); One binding site model, * = hyperbolic curve): 0.15; Kd (R15 (WP_207952809-LBD) [6]): 7.6 ± 1.1 µM; N value, R15 (R15 (WP_207952809-LBD) [6]): 0.05; Binding in thermal shift assay, R6 (R6 (WP_185834821-LBD) [8]): Nts^b (no binding observed in thermal shift assays, i.e., compounds caused changes in the midpoint of protein unfolding (Tm) of less than 2 °C); Binding in thermal shift assay, R10 (R10 (WP_110129388-LBD)): Tsa^c (binding observed in thermal shift assays, i.e., compounds caused changes in Tm of more than 2 °C); Proteins that bound / recognized the ligand [9]: 2
3 | Nc1nc2c(ncn2[C@@H]2O[C@H](CO)[C@@H](O)[C@H]2O)c(=O)[nH]1 [Guanosine] |  |  | 25 ± 4.9 | 0.13 | Nts^b (no binding observed in thermal shift assays, i.e., compounds caused changes in the midpoint of protein unfolding (Tm) of less than 2 °C) | Nts^b (no binding observed in thermal shift assays, i.e., compounds caused changes in the midpoint of protein unfolding (Tm) of less than 2 °C) | 1.2 ± 0.1 | Nts^b (no binding observed in thermal shift assays, i.e., compounds caused changes in the midpoint of protein unfolding (Tm) of less than 2 °C) |  |  | N value, R1 (R1 (WP_219614703-LBD) [2]; [18]): 0.21; Kd (R6 (WP_185834821-LBD) [10]): 25 ± 5.2 µM; N value, R6 (R6 (WP_185834821-LBD) [10]; [18]): 0.35; Kd (R15 (WP_207952809-LBD) [6]): 37 ± 4 µM; N value, R15 (R15 (WP_207952809-LBD) [6]): 0.70; Binding in thermal shift assay, R10 (R10 (WP_110129388-LBD)): Tsa^c (binding observed in thermal shift assays, i.e., compounds caused changes in Tm of more than 2 °C); Binding in thermal shift assay, R11 (R11 (WP_162024566-LBD) [12]): Tsa^c (binding observed in thermal shift assays, i.e., compounds caused changes in Tm of more than 2 °C); Concentration causing high c-di-GMP levels ([13]; agar plates, wild-type R6 (VC2224)): 1 mM; Concentration at which colonies became wrinkly (onset of the response) ([13]; minimal medium agar plates, 24 h, 30 °C, wild-type R6): 100 µM
4 | NC(=O)NC1NC(=O)NC1=O (stereo not shown) [Allantoin] |  | Nb^a |  |  | Nts^b (no binding observed in thermal shift assays, i.e., compounds caused changes in the midpoint of protein unfolding (Tm) of less than 2 °C) | Nts^b (no binding observed in thermal shift assays, i.e., compounds caused changes in the midpoint of protein unfolding (Tm) of less than 2 °C) |  | Nts^b (no binding observed in thermal shift assays, i.e., compounds caused changes in the midpoint of protein unfolding (Tm) of less than 2 °C) |  |  | Binding in microcalorimetric titration, R8 (R8 (WP_227113344-LBD); 25 °C, pH 6.0): Nb^a; Binding in microcalorimetric titration, R14 (R14 (WP_021170906-LBD) [5]; ITC, 25 °C): Nb^a; Binding in thermal shift assay, R15 (R15 (WP_207952809-LBD) [14]): Nts^b (no binding observed in thermal shift assays, i.e., compounds caused changes in the midpoint of protein unfolding (Tm) of less than 2 °C)
5 | O=c1[nH]c(=O)c2[nH]c(=O)[nH]c2[nH]1 [Uric acid] |  | Nb^a |  |  | Nts^b (no binding observed in thermal shift assays, i.e., compounds caused changes in the midpoint of protein unfolding (Tm) of less than 2 °C) | Nts^b (no binding observed in thermal shift assays, i.e., compounds caused changes in the midpoint of protein unfolding (Tm) of less than 2 °C) |  |  | Nb^a |  | Binding in microcalorimetric titration, R5 (R5 (WP_131005693-LBD) [3]): Nb^a; Binding in thermal shift assay, R1 (R1 (WP_219614703-LBD) [15]): Nts^b (no binding observed in thermal shift assays, i.e., compounds caused changes in the midpoint of protein unfolding (Tm) of less than 2 °C); Binding in thermal shift assay, R6 (R6 (WP_185834821-LBD) [8]): Nts^b (no binding observed in thermal shift assays, i.e., compounds caused changes in the midpoint of protein unfolding (Tm) of less than 2 °C); Binding in thermal shift assay, R10 (Supplementary Table 3) (R10 (WP_110129388-LBD)): Nts (No binding observed in thermal shift assays, i.e. compounds caused changes in the midpoint of protein unfolding (Tm) of less than 2 ºC); Binding in thermal shift assay, R14 (R14 (WP_021170906-LBD) [16]): Nts^b (no binding observed in thermal shift assays, i.e., compounds caused changes in the midpoint of protein unfolding (Tm) of less than 2 °C)
6 | Cc1c[nH]c(=O)[nH]c1=O [Thymine] |  |  | 32 ± 8.9 | 0.99 |  | Nts^b (no binding observed in thermal shift assays, i.e., compounds caused changes in the midpoint of protein unfolding (Tm) of less than 2 °C) | 595 ± 47 | Nts^b (no binding observed in thermal shift assays, i.e., compounds caused changes in the midpoint of protein unfolding (Tm) of less than 2 °C) | Nb^a | 21 ± 0.4 | N value, R1 (R1 (WP_219614703-LBD) [2]; [18]): 0.20; Kd (R11 (WP_162024566-LBD) [4]; pH 7.0, 1 mM β-mercaptoethanol, read-out: Dissociation constant, R11): 854 ± 254 µM
7 | NCCO [ethanolamine] | did not produce any significant shift |  |  |  |  |  |  |  |  |  | 
8 | CN [methylamine] | did not produce any significant shift |  |  |  |  |  |  |  |  |  | 
9 | c1ncc2nc[nH]c2n1 [Purine] |  | Nb^a | 94 ± 19 | 0.19 |  | Nts^b (no binding observed in thermal shift assays, i.e., compounds caused changes in the midpoint of protein unfolding (Tm) of less than 2 °C) |  |  | Nb^a | 2.3 ± 0.3 | Binding in microcalorimetric titration, R5 (R5 (WP_131005693-LBD) [3]): Nb^a
10 | Nc1cc[nH]c(=O)n1 [Cytosine] |  | Nb^a | 105 ± 20 | 0.46 |  | Nts^b (no binding observed in thermal shift assays, i.e., compounds caused changes in the midpoint of protein unfolding (Tm) of less than 2 °C) | 1460 | Nts^b (no binding observed in thermal shift assays, i.e., compounds caused changes in the midpoint of protein unfolding (Tm) of less than 2 °C) | Nb^a | 74 ± 15 | N value, R1 (R1 (WP_219614703-LBD) [2]; [18]): 0.21
11 | Nc1ncnc2c1ncn2[C@@H]1O[C@H](CO)[C@@H](O)[C@H]1O [Adenosine] |  | Nb^a | 17 ± 4.1 |  |  | Nts^b (no binding observed in thermal shift assays, i.e., compounds caused changes in the midpoint of protein unfolding (Tm) of less than 2 °C) | 1.1 ± 0.1 | Nts^b (no binding observed in thermal shift assays, i.e., compounds caused changes in the midpoint of protein unfolding (Tm) of less than 2 °C) | Nb^a | 88 ± 12 | N value, R1 (R1 (WP_219614703-LBD) [2]): 0.13; N value, R14 (R14 (WP_021170906-LBD) [5]): 0.41; Binding in thermal shift assay, R6 (R6 (WP_185834821-LBD) [8]): Nts^b (no binding observed in thermal shift assays, i.e., compounds caused changes in the midpoint of protein unfolding (Tm) of less than 2 °C); Binding in thermal shift assay, R10 (Supplementary Table 3) (R10 (WP_110129388-LBD)): Nts (No binding observed in thermal shift assays, i.e. compounds caused changes in the midpoint of protein unfolding (Tm) of less than 2 ºC)
12 | N[C@@H](Cc1c[nH]c2ccccc12)C(=O)O [L-Trp] | did not produce any significant shift |  |  |  |  |  |  |  |  |  | 
13 | NC(=O)CC[C@H](N)C(=O)O [L-Gln] | did not produce any significant shift |  |  |  |  |  |  |  |  |  | 
